Test results published in paper PMC6197257 (Scientific Reports, 2018).

What was measured:
[1] = biological target: T1, rat 11β-HSD2 (Rattus norvegicus, UniProt P50233); assay: in vitro 11β-HSD2 activity using rat kidney microsomes; format: biochemical
T1 construct: kidney microsome fractions were obtained from male Wistar rats (7-week-old); from tissue; host or cells: rat kidney microsome fraction (male Wistar rats)
T1 sequence (P50233 1-400): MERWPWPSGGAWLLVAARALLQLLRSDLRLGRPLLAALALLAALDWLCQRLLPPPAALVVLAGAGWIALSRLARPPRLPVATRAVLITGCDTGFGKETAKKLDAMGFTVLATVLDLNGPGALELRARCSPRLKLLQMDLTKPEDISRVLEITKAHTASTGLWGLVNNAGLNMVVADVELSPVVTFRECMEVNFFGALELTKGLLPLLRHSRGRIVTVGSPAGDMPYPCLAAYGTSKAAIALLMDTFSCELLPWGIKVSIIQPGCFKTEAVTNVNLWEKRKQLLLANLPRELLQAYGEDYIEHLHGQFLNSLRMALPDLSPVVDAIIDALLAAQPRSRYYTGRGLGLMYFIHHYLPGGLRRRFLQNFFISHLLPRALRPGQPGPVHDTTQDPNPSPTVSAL
Protocol: Assays were conducted as described by Diederich et al.[23] with slight modifications as described in our previous study. Briefly, kidney microsome fractions were obtained from male Wistar rats (7-week-old). The microsome fraction (1.0 mg protein) was then incubated at 37 °C for 30 min in a reaction mixture containing 50 nM [1,2,6,7-^3H] cortisol, 1 mM NAD^+, and samples in […] 0.1 M phosphate buffer (pH 6.0). The reaction was terminated by adding 250 µl EtOH containing 1.25 mg cortisol and 1.25 mg cortisone. A 10 µl aliquot of the solution was spotted onto a silica gel 60 F254 plate and was developed with chloroform:MeOH (9:1). Spots corresponding to cortisone (Rf value, 0.43) were detected under UV light, scraped into a scintillation vial containing Clear-sol®, and the radioactivity was measured using a liquid scintillation counter (Hitachi Aloka Medical, Tokyo, Japan). The IC50 was calculated from the least square regression line made from 3 points that crossed 50% of the control logarithmic concentration values.

[2] = pharmacokinetics in EHBRs orally treated with GA (200 mg/kg), LC-MS/MS; format: in vivo, Eisai Hyperbilirubinemia rats (EHBRs)
Protocol: (§1) Female SD rats or EHBRs (9-week-old) were anesthetized by an intraperitoneal (i.p.) injection of urethane (1 g/kg) and their jugular veins were exposed. […] Aliquots (10 µl) of plasma or urine were mixed with 20 µl of subtilisin (0.91 U/ml), incubated at 37 °C for 30 min, followed by the addition of 70 µl of astragalloside IV solution (1 µg/ml in ethanol containing 0.5% formic acid), and kept at −20 °C for 30 min.

[3] = pharmacokinetics in SD rats orally treated with GA (200 mg/kg), LC-MS/MS; format: in vivo, Sprague Dawley (SD) rats; details: female SD rats, GA 200 mg/kg oral, over 12 h
Protocol: as §1

[4] = biological target: T2, OAT1 (Homo sapiens, UniProt Q4U2R8); assay: uptake by MDCK II cells stably expressing OAT1; format: in vitro ADME; details: pooled plasma of male EHBRs (79 µM compound 1), pH 5.5, 37 °C, 15 min
T2 construct: expressed in transfected cells
T2 sequence (Q4U2R8 1-563): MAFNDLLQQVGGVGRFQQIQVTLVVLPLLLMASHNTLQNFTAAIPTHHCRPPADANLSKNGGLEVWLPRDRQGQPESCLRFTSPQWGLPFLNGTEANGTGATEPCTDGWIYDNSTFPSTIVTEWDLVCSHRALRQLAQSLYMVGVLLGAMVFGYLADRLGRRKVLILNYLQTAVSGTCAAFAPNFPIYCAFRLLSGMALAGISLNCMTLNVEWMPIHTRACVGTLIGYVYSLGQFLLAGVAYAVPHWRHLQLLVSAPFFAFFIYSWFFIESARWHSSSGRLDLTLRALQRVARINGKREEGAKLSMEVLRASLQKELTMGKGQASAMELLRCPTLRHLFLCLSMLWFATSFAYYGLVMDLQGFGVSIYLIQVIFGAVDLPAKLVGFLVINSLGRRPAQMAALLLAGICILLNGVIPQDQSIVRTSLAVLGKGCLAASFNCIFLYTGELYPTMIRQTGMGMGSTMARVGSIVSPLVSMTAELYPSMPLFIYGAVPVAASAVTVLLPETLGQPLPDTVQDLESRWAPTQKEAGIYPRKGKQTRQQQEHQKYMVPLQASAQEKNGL
Protocol: MDCKII cells were cultured in Dulbecco’s modified Eagle’s medium containing 10% FBS, 100 U/ml penicillin, and 100 µg/ml streptomycin at 37 °C in 5% CO2. Plasmids carrying the cDNAs encoding human organic anion transporter (OAT) 1 and 3 were prepared using the pCI-neo mammalian expression vector, as described previously. Using the plasmids, MDCKII cells stably expressing OAT1 and 3 were prepared as described previously, and tested for their functional expressions by evaluating the transports of [^3H]p-aminohippurate and [^3H]estrone sulfate, respectively, as probe substrates.
For the transport assay, the cells were seeded in 24-well plates (1 × 10^5 cells/well), and incubated for 24 h. The cells were pre-incubated for 15 min at 37 °C with 0.25 ml of the incubation medium described above. Two ml of pooled female or male EHBR plasma samples was lyophilized, and dissolved in 2 ml of 10 mM MES (pH 5.5). The cells were then incubated further at 37 °C for 15 min with 0.1 ml of pooled female or male EHBR plasma samples. The surface of the cells was washed 3 times with 0.5 ml of ice-cold PBS, and then the contents were extracted with 0.2 ml of ethanol. The cell residues were dissolved by 0.1 ml of 1 M NaOH, and after neutralization by adding 0.1 ml of 1 M HCl, the concentrations of protein were measured as mentioned above.

[5] = tested on: serum albumin; assay: binding assay with serum albumin (ultrafiltration of pooled plasma); format: in vitro ADME, rat; details: pooled plasma of EHBRs, filtrate undetectable by LC-MS/MS
Protocol: In total 100 µl of pooled plasma samples from female EHBRs described above were ultra-centrifugated using Centricut W-20 (Molecular weight cut off 2 × 10^4, Kurabo Industries Ltd., Osaka, Japan) according to the manufacturer’s instruction, and the concentration of compound 1 in the filtrate was measured by using LC-MS/MS described in uptake study section.

## CC1(C(=O)OC2OC(C(=O)O)C(O)C(O)C2O)CC(O)C2(C)CCC3(C)C(=CC(=O)C4C5(C)CCC(OS(=O)(=O)O)C(C)(C)C5CCC43C)C2C1 (stereo not drawn) [Compound 1, 22α-hydroxy-18β-glycyrrhetyl-3-O-sulfate-30-glucuronide]
[1]; IC50 of compound 1 compared with 3MGA and GA
  potency on 11β-HSD2, times lower than that of 3MGA and GA: about 10 times
[1]; kidney microsomes of male Wistar rats, 37 °C, 30 min
  IC50: 2000 nM
[2]; EHBRs orally treated with GA
  plasma concentration, times higher than that of 3MGA: about 10 times
[2]; Eisai Hyperbilirubinemia rats (EHBR), rat, plasma, female EHBRs, GA 200 mg/kg oral, 12 h, read-out: plasma concentration 12 h after GA treatment
  concentration at 12 h: 5.3 µM
[2]; female EHBRs, GA 200 mg/kg oral, over 12 h
  urinary elimination in EHBRs: eliminated via urine
[3]
  detection in plasma of SD rats: not detected
  urinary elimination in SD rats: not detected
[4]
  uptake by cells expressing OAT1 compared with mock cells: higher than that by mock cells
[5]
  albumin-binding ratio in plasma: more than 99.9%
